IC50 and Kd data for two compounds are collected here from BindingDB's records for doi:10.1016/j.chembiol.2015.10.013 (Pfizer, 2015).

Each structure is given as a SMILES string. A value given as a limit tells only on which side of the number the result lay.

In experiment [1] the target is T1, Bromodomain-containing protein 4 (Homo sapiens, UniProt O60885). The experiment is described as follows: BRD4 Fluorescence Polarization (FP). (In fluorescence polarisation assays a small probe gives low polarisation when free and higher when bound to something large.)
Experiment [2] concerns the target T2, CREB-binding protein (Homo sapiens, UniProt Q92793). The experiment is described as follows: CBP Fluorescence Resonance Energy Transfer (FRET).
Experiment [3] addresses T1, Bromodomain-containing protein 4. The experiment can be described thus: ITC. A general note: ITC needs no label: the signal is the heat of the interaction.
Experiment [4] addresses T2, CREB-binding protein. The experiment is described as follows: ITC.

T2 sequence (Q92793 whole entry): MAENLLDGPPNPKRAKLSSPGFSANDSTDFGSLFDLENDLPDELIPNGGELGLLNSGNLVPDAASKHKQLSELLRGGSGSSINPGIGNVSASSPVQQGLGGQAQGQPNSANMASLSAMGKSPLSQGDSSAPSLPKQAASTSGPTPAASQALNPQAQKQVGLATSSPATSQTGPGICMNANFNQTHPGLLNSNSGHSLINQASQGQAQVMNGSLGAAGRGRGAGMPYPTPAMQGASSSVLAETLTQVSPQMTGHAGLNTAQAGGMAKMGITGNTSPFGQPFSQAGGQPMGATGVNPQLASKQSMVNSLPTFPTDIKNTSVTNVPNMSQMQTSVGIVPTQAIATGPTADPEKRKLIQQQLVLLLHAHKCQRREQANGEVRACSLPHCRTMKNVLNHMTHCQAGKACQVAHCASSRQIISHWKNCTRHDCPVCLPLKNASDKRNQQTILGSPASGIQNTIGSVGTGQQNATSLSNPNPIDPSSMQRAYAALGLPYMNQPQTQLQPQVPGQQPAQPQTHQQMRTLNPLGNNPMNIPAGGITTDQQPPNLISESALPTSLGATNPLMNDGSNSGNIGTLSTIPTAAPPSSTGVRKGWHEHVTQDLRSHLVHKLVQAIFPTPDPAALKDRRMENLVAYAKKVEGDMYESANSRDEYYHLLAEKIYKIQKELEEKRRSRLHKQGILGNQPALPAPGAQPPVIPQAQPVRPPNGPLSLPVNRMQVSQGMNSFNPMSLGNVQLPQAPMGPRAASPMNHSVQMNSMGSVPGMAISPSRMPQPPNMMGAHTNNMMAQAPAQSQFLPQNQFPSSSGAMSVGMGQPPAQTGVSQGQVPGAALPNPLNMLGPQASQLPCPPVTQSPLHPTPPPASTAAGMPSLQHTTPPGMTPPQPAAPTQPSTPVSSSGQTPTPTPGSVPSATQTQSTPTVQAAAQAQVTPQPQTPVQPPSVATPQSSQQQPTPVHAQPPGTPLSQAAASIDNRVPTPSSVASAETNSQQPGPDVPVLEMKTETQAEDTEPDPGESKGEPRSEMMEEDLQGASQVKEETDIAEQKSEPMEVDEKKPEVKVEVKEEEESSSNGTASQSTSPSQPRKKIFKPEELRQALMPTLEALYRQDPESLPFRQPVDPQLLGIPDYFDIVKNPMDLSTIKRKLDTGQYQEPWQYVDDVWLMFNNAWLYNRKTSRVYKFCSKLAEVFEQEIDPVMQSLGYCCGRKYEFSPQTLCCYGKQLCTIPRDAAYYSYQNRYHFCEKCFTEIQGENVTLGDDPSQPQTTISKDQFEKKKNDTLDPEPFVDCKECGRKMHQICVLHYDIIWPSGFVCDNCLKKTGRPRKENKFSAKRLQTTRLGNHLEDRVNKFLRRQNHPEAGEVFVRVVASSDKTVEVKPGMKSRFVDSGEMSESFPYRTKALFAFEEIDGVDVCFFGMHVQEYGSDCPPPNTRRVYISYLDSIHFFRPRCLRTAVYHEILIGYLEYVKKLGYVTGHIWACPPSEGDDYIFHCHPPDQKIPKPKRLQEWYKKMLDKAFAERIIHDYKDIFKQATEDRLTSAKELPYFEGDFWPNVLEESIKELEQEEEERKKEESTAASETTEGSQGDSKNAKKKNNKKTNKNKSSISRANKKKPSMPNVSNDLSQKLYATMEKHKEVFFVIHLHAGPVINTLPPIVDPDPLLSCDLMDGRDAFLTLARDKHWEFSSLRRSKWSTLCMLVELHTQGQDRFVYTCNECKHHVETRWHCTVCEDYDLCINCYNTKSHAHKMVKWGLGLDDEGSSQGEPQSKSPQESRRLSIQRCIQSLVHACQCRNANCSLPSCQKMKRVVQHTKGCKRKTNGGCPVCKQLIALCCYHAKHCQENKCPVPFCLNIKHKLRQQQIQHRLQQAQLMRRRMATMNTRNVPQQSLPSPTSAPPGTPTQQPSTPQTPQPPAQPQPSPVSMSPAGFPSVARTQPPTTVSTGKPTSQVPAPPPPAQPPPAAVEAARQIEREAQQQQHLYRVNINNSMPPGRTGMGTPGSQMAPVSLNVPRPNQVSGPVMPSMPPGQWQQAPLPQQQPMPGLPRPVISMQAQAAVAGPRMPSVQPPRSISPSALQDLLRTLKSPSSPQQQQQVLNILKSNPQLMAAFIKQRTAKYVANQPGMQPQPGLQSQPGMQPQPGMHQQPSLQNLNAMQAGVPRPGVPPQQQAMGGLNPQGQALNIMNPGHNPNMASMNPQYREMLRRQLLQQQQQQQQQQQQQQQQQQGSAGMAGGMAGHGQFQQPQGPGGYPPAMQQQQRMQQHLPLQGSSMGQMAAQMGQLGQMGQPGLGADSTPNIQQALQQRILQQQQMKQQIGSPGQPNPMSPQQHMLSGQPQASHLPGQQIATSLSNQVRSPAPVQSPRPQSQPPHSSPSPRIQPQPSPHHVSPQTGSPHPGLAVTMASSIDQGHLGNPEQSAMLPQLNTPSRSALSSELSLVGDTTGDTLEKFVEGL

Turning to `COc1ccc(CCc2nc3c(C)c(-c4c(C)noc4C)c(C)cc3n2CCN2CCOCC2)cc1` [ISOX-INACT], the IC50 (commonly the point on the concentration scale where inhibition reaches its midpoint) in experiment [1] was above 120 µM; in experiment [2], 10.6 µM.

Regarding `CCCOc1ccc(CCc2nc3cc(-c4c(C)noc4C)ccc3n2CCN2CCOCC2)cc1` [PF-CBP1], the figures for the IC50 in experiment [1] and in experiment [2] were 18.1 µM and 0.13 µM, respectively. For the same compound, the Kd – broadly, the concentration at which binding is half-saturated – is above 20 µM in experiment [3] and 0.19 µM in experiment [4].
